Measurements as given in paper PMC11778240, “Synthesis and preclinical evaluation of tigilanol tiglate analogs as latency-reversing agents for the eradication of HIV” (Science Advances, 2025).

What was measured:
J-Lat clone 10.6 cells = experiment: J-Lat HIV latency reversal assay (GFP expression); assay type: cell-based, Human; conditions: J-Lat 10.6, 48 hours; for HIV latency reversal in words: ascending concentrations
Excerpt: Having shown that our lead compounds bind cell-free PKC isoforms, enter cells, translocate PKC-GFP fusion proteins, and activate NF-κB transcription factors, we next set out to determine whether our analogs were capable of reversing HIV from latency. We performed in vitro assays using T lymphocyte J-Lat clone 10.6, which contains a latent near full-length replication-incompetent integrated HIV DNA genome ([72]). J-Lat 10.6 lacks two viral genes, env and nef, which encode for the envelope protein and an accessory protein, respectively, and thus cannot initiate a spreading HIV infection. The integrated HIV provirus also encodes a GFP reporter gene, allowing latency reversal to be measured by quantification of GFP expression (fig. S1). […] In this latency reversal assay, we quantified GFP expression 48 hours after compound addition and observed bryostatin 1 to be maximally effective at concentrations of 40 nM or higher with latency reversal in 12% of cells (Fig. 8). Given the efficacy of bryostatin 1 as an LRA ([73], [74]), EBC-46 and many of its analogs tested in this J-Lat assay induced latency reversal in >90% of cells. […] SUW427, an esterase-releasable prodrug of EBC-46, also performed similarly to EBC-46 with a maximum efficacy of latency reversal in >90% of cells at a dose of 250 nM. […] The gradual release of EBC-46 from its prodrug form provides an alternative mode of administration that avoids the bolus effect associated with rapid drug administration ([17]). […] This is consistent with its lack of activity in the NF-κB activation assay and its design as a negative control as it is structurally similar to EBC-46 but unable to bind to the C1 domain of PKC at the concentrations used in this assay as it lacks a complete pharmacophore.
HIV latency reversal in-vitro assay
Human T Lymphocyte J-Lat Full Length Cell Line 10.6 (cat #9849) was obtained through the NIH HIV Reagent Program, Division of AIDS, NIAID, NIH and was contributed to the NIH HIV Reagent Program by Dr. Eric Verdin (70). J-Lat 10.6 cells were plated at 5 × 10^5 cells in 180 μL of RF10 media consisting of RPMI media supplemented with 1% Penicillin/Streptomycin and 10% Fetal Bovine Serum (FBS) in 96 -well U -bottom plates. J -Lat 10.6 cells were then stimulated for 48 hr by adding 20 μL of newly designed and synthesized tigilanol tiglate analogs, PKC modulators (bryostatin 1) as our positive control or med ia only (mock) as our negative control. Our negative control was RF10 media as the tigilanol tiglate analogs were freshly diluted with RF10 prior to plating. The final volume was 200 μL per well. Experiments were performed in three independent biological replicates, each completed in technical duplicates (n = 6). After 48 hr stimulation, 96 - well U -bottom plates were centrifuged at 296 RCF for 7 minutes to pellet cells, which were resusp ended in 200 μL of freshly prepared 2% paraformaldehyde (PFA) in PBS. GF P expression was measured 24 -hours post -fixation using the FITC channel on a LSR Fortessa (BD Biosciences) flow cytometer. Data analysis was conducted with FlowJo software version 10.8.1.

PKC-β fused to GFP = biological target: T1, PKC-β fused to GFP (Homo sapiens, UniProt P05771); experiment: PKC-GFP translocation assay in CHO-K1 cells (confocal microscopy); assay type: cell-based; conditions: 500 nM, within 10 min
T1 construct: host or cells: CHO-K1
Excerpt: (§1) Using confocal microscopy, this assay allows us to visualize, in real time, cell permeation and the ligand-induced translocation of specific PKC isoforms from the cytosol to the membranes of the cell—the hallmark of PKC activation ([29], [68]). […] In alignment with past studies on the activation of PKC in CHO-K1 cells ([22], [65], [69]), we observed strong plasma membrane translocation of PKC-β (Fig. 7C).
(§2) Agar stabs of DH5-alpha (high copy) bacterial cells, containing plasmids for expression of mammalian PKC-δ (Plasmid #: 178856) and PKC-β (Plasmid #: #112265) fused to EGFP under constitutive mammalian promoters CAG and CMV, respectively, were purchased from Addgene.
(§3) Upon receipt, these stabs were incubated at 37 °C in 5% CO2 for 24 hours to allow sufficient bacterial growth. Following incubation, a sterile pipette tip was utilized to streak bacteria onto LB agar plates that are positive for the respective antibiotic that selects for each plasmid. For bacteria containing Plasmid #: 178856, bacteria were streaked onto CellPro™ LB (Lennox) + Ampicillin 100 μg/ml while bacteria containing Plasmid #: 112265 was streaked onto CellPro™ LB (Miller) + Kanamycin 50 μg/ml and incubated for 24 hours at 37 °C in 5% CO2 in order to isolate single colonies of bacteria. Single, isolated bacterial colonies were selected utilizing a sterile pipette tip and placed in polypropylene culture tubes with vented stoppers containing 2mL of LB Broth Miller (Catalog No. BP1426-500) and the respective antibiotic for each plasmid at the recommended concentration of 100 μg/ml for ampicillin and 50 μg/ml for kanamycin. Following inoculation, these liquid cultures were placed on a shaker at 37 °C at 225rpm for 24 hours. The next day, the plasmids were sequestered and purified from the bacteria utilizing the Thermo Scientific™ GeneJET Plasmid Miniprep Kit (Catalog No. K0502).
(§4) PKC-β/PKC-δ plasmid purification
(§5) To sequester and purify plasmid from each culture tube, bacteria was resuspended in culture and transferred to sterile 1.7mL microcentrifuge tubes with 1 mL of bacteria placed into each tube. To harvest the bacteria, microcentrifuge tubes were placed in a microcentrifuge and spun at 8000 rpm for 2 minutes at room temperature. Note that all subsequent centrifugations were performed in a tabletop microcentrifuge at room temperature. Following centrifugation, the supernatant was decanted and 250 μL of Resuspension solution was added to the pelleted cells and vortexed.
(§6) Afterwards, 250 μL of Lysis Solution was added to the resuspended bacterial cells and tubes were inverted 4-6 times and allowed to incubate for no more than 5 minutes to avoid denaturation of the plasmid DNA. After lysing the bacterial cells, 350 μL of Neutralization Solution was immediately added and tubes were inverted 4-6 times. Tubes were then centrifugated for 5 minutes at 14,000 rpm to pellet the cell debris and chromosomal DNA. The supernatant was then carefully aspirated using a pipette, taking care not to distribute the white precipitate of cell and DNA debris and transferred to the GeneJET spin columns, provided in the GeneJET Miniprep Kit. The spin columns were subsequently centrifugated for 1 minute, the flow-through was discarded, and the column was placed back into the same collection tube. 500 μL of Wash Solution, diluted with 96% ethanol, was added to the column, and the column was centrifugated for 1 minute at 14,000 rpm.
(§7) The flow-through was discarded and the column was placed back into the same collection tube.
(§8) This wash process was repeated a second time, after which the spin columns were centrifugated for an additional 1 minute to ensure all residual Wash solution was removed from the plasmids.
(§9) The GeneJET spin columns were then transferred to new 1.7mL microcentrifuge tubes, and 50 μL of Elution Buffer was added to the center of the spin column to allow optimal elution of the plasmid
(§10) DNA. Before centrifugating for 2 minutes, the columns were allowed to incubate for 2 minutes at […]
(§11) room temperature. […]

PKC-δ fused to GFP = biological target: T2, PKC-δ fused to GFP (Homo sapiens, UniProt Q05655); experiment: as above; assay type: cell-based; conditions: 1500 nM, within 10 min
T2 construct: host or cells: CHO-K1
Excerpt: as §1, §2, §3, §4, §5, §6, §7, §8, §9, §10, §11

T2 sequence (Q05655 whole entry, the tested form may be a part): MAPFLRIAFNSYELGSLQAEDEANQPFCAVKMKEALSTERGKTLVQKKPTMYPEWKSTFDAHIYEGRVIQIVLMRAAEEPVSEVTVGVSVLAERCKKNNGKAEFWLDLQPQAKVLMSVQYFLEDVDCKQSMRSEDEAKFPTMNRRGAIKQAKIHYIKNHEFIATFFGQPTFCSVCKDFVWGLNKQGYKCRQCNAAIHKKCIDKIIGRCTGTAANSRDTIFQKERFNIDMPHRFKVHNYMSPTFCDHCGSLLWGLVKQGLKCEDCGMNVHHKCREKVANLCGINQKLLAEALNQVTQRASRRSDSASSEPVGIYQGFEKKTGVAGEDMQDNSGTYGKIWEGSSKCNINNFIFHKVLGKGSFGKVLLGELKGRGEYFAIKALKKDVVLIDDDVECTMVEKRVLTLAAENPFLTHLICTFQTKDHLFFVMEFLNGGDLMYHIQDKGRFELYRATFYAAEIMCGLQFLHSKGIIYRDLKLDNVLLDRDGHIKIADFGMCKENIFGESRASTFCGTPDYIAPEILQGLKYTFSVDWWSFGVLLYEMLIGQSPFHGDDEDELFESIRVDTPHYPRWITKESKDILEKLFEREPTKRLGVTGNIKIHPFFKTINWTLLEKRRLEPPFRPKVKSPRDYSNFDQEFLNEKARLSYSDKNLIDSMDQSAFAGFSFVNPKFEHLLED
T1 sequence (P05771 whole entry, the tested form may be a part): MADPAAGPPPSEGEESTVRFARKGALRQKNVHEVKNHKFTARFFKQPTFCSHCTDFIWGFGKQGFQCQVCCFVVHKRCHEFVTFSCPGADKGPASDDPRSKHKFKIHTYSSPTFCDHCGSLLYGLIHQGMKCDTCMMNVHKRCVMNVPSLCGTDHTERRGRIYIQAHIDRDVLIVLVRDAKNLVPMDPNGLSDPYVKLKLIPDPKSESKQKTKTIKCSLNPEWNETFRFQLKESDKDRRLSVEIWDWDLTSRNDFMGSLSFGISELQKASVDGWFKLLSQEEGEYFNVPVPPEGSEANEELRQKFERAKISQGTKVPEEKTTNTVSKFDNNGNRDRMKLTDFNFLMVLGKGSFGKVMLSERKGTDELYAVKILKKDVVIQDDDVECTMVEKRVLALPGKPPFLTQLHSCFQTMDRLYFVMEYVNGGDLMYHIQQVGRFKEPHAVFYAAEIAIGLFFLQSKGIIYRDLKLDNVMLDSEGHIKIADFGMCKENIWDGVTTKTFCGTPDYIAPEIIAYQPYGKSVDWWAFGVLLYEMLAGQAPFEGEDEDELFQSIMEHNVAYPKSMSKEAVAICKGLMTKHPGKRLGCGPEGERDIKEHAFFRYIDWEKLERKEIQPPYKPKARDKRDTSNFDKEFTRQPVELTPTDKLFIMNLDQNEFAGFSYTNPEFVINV

Row | Structure (SMILES) | HIV latency reversal in words (J-Lat clone 10.6 cells) | further results
1 | C/C=C(\C)C(=O)O[C@@H]1[C@@H](C)[C@@]2(O)[C@H]([C@@H]3C(C)(C)[C@]13OC(=O)[C@H](C)CC)[C@@H]1O[C@]1(CO)[C@@H](O)[C@]1(O)C(=O)C(C)=C[C@H]12 [SUW407] | required a higher dose than EBC-46 before we detected reversal activity | 
2 | C/C=C(\C)C(=O)O[C@@H]1[C@@H](C)[C@]2(O)[C@@H]3C=C(C)[C@H](OC(=O)C=C(C)C)[C@@]3(O)[C@H](O)C(CO)=C[C@H]2[C@@H]2C(C)(C)[C@]12OC(=O)[C@@H](C)CC [SUW425] | required a higher dose than EBC-46 before we detected reversal activity | 
3 | CC[C@H](C)C(=O)O[C@@]12[C@H](OC(=O)C3(C)CC3)[C@@H](C)[C@@]3(O)[C@H]([C@@H]1C2(C)C)[C@@H]1O[C@]1(CO)[C@@H](O)[C@]1(O)C(=O)C(C)=C[C@H]13 [SUW413] | required a higher dose than EBC-46 before we detected reversal activity | 
4 | C/C=C(\C)C(=O)O[C@@H]1[C@@H](C)[C@]2(O)[C@@H]3C=C(C)[C@H](OC(=O)c4ccccc4)[C@@]3(O)[C@H](O)C(CO)=C[C@H]2[C@@H]2C(C)(C)[C@]12OC(=O)[C@@H](C)CC [SUW422] | required a higher dose than EBC-46 before we detected reversal activity | 
5 | CC=C(C)C(=O)OC1C(C)C2(O)C(C3OC3(COC)C(O)C3(O)C(=O)C(C)=CC32)C2C(C)(C)C12OC(=O)C(C)CC (stereo not drawn) [SUW426] | did not produce latency reversal at any tested concentration | 
6 | C/C=C(\C)C(=O)O[C@@H]1[C@@H](C)[C@]2(O)[C@@H]3C=C(C)C(=O)[C@@]3(O)[C@H](O)C(CO)=C[C@H]2[C@@H]2C(C)(C)[C@]12OC(=O)[C@@H](C)CC [SUW400] |  | maximal latency reversal, % of cells (J-Lat clone 10.6 cells; 250 nM): > 90 % of cells
7 | CC[C@H](C)C(=O)O[C@@]12[C@H](OC(C)(C)C)[C@@H](C)[C@@]3(O)[C@H]([C@@H]1C2(C)C)[C@@H]1O[C@]1(CO)[C@@H](O)[C@]1(O)C(=O)C(C)=C[C@H]13 [SUW430] | required a higher dose than EBC-46 before we detected reversal activity | translocation of PKC-β-GFP in words (PKC-β fused to GFP): effectively translocate PKC-β at 500 nM; translocation of PKC-δ-GFP in words (PKC-δ fused to GFP): selectively induced perinuclear translocation of PKC-δ
8 | C/C=C(\C)C(=O)O[C@@H]1[C@@H](C)[C@@]2(O)[C@H]([C@@H]3C(C)(C)[C@]13OC(=O)Cc1cccc3ccccc13)[C@@H]1O[C@]1(CO)[C@@H](O)[C@]1(O)C(=O)C(C)=C[C@H]12 [SUW431] | effectively activates latent HIV at substantially lower concentrations than EBC-46 | translocation of PKC-β-GFP in words (PKC-β fused to GFP): effectively translocate PKC-β at 500 nM; translocation of PKC-δ-GFP in words (PKC-δ fused to GFP): strong perinuclear and plasma membrane translocation of PKC-δ; latency reversal, % of cells (J-Lat clone 10.6 cells; 40 nM): 90 % of cells
9 | CC=C(C)C(=O)OC1C(C)C2(O)C(C3OC3(CO)CC3(O)C(=O)C(C)=CC32)C2C(C)(C)C12OC(=O)C(C)CC (stereo not drawn) [SUW403] | required a higher dose than EBC-46 before we detected reversal activity | 
10 | C/C=C(\C)C(=O)O[C@@H]1[C@@H](C)[C@@]2(O)[C@H]([C@@H]3C(C)(C)[C@]13OC(=O)C1CCC1)[C@@H]1O[C@]1(CO)[C@@H](O)[C@]1(O)C(=O)C(C)=C[C@H]12 [SUW406] | required a higher dose than EBC-46 before we detected reversal activity | 
11 | C/C=C(\C)C(=O)O[C@@H]1[C@@H](C)[C@@]2(O)[C@H]([C@@H]3C(C)(C)[C@]13OC(=O)[C@@H](C)CC)[C@@H]1O[C@]1(CO)[C@@H](O)[C@]1(O)C(=O)C(C)=C[C@H]12 [EBC-46, Tigilanol tiglate] |  | translocation of PKC-β-GFP in words (PKC-β fused to GFP): effectively translocate PKC-β at 500 nM; translocation of PKC-δ-GFP in words (PKC-δ fused to GFP): selectively induced perinuclear translocation of PKC-δ
12 | C/C=C(\C)C(=O)O[C@@H]1[C@@H](C)[C@@]2(O)[C@H]([C@@H]3C(C)(C)[C@]13OC(=O)c1ccccc1)[C@@H]1O[C@]1(CO)[C@@H](O)[C@]1(O)C(=O)C(C)=C[C@H]12 [SUW428] | required a higher dose than EBC-46 before we detected reversal activity | 
